# Results from US12396992B2, “Organic compounds” (INTRA-CELLULAR THERAPIES, INC., priority 2019, dated 2025).
# Entries after “also recorded” stand apart in the source; their conditions may differ.
# Assays:
# BV2 cells [1] = assay: ADP-induced chemotaxis of BV2 cells in Boyden chamber; assay type: cell-based, mouse; conditions: 100 μM ADP, 4 hrs
# Experimental: Chemotaxis towards 100 μM ADP was measured in a Boyden chamber system for 4 hrs against a vehicle control. BV2 cells were added to the upper chamber of a 5 μm pore Boyden chamber with 100 μM ADP or vehicle in the lower chamber and incubated at 37′C with 5% CO2 for 4 hours. The curve was fit to a 4-parameter logarithmic equation with the following constraints: top >80% and bottom <20%. […] As shown in the left panel of FIG. 7A, raw fluorescence counts (relative fluorescence units or RFU), representing the cell count in the lower chamber, were used to calculate control conditions. The Vehicle condition represents the minimum migration, in which there was no ADP present. The maximum migration was shown as the 100 μM ADP condition.
# The measured potency correlates with documented IC50 values.
# P2Y12 = P2Y12 (Homo sapiens, UniProt Q9H244); conditions: P2Y12 inhibitors; read-out: documented IC50; cited from earlier work
# BV2 cells [2] = assay: Quantitative PCR of inflammatory cytokine mRNA in LPS-stimulated BV2 cells; assay type: cell-based, mouse; conditions: for LPS-induced expression of Ccl2 / LPS-induced expression of IL1β / LPS-induced expression of TNFα: FIG. 3a; for Chemokine (C—C) motif Ligand 2 expression / Interleukin 1 beta expression / Tumor necrosis factor expression: BV2 + LPS, Q-PCR, initial results
# Experimental: Levels of IL1 are measured using quantitative PCR of IL1β mRNA. IL1β is considered a marker of inflammation. Results are depicted in FIG. 2 (RQ: relative quantification of changes in gene expression in treated versus control samples; ***p<0.01 vs control, √p<0.01 vs LPS alone; ANOVA with Newman-Keuls post-hoc test).
# BV2 cells are pretreated with compound, ITI-214 or rolipram, a PDE4 inhibitor, then stimulated with 50 ng/ml LPS for 4 hours. Expression levels of TNF, IL1β, Ccl2, and IL6 are measured. Normalized mRNA levels are shown as change from vehicle (ΔΔCt) and compared using a one-way ANOVA. […] The mRNA transcripts for TNF, IL1β, and Ccl2—three of the four cytokines studied in vivo—were elevated in BV2 cells treated with 50 ng/ml LPS.
# (§1) The test compound is added first, the LPS is added one hour later, and the cells and/or media are harvested at five hours from commencement of the experiment.
# Cells: BV2 mouse microglial cell line (ICLC, Italy) grown in 2% or 10% heat-inactivated FBS.
# (§2) RTqPCR: RNA from BV2 cells purified using RNeasyKit (Qiagen) and from mouse tissue using TRIzol (Ambion). TaqMan primer-probe assays from Thermo Fisher. mRNA levels for all conditions are normalized to GAPDH and to vehicle control (ΔΔCt). Data are analyzed statistically using one-way ANOVA with the Bonferroni post-test for multiple comparisons.
# BV2 cells [3] = assay: LPS-induced TNFα release from BV2 cells (ELISA); assay type: cell-based, mouse; conditions: 50 ng/ml LPS stimulation, FIG. 4
# Experimental: TNFα release: TNFα levels are measured in BV2 conditioned media and normalized to cell protein levels. Inhibition of LPS-induced TNFα release from BV2 cells is depicted in FIG. 4.
# as §1
# TNFα ELISA: Thermo Fisher mouse TNFα colorimetric, sandwich ELISA kit. Interpolate values from standard curve. Dose response is fit to a 4-parameter logistic curve.
# mouse striatum [4] = assay: LPS-induced inflammatory gene expression in mouse striatum (Q-PCR); assay type: in vivo
# Experimental: as §2
# Data from yet another experiment measuring the effect of PDE1 inhibition on inflammatory gene expression in mouse striatum is depicted in FIG. 6. […] Striatal tissue is analyzed for mRNA levels of TNF, IL1β, Ccl2, and IL6. Expression levels are shown as change in Q-PCR signal from vehicle (ΔΔCt) and compared using an ANOVA. * p<0.05, **p<0.01, ***p<0.001.
# The Applicants measure mRNA levels of four common inflammatory markers (TNF, IL1β, Ccl2, and IL6) using quantitative PCR (FIG. 7).
# BV2 cells [5] = assay: cAMP (ELISA) and P-VASP S157 (Western blot) in BV2 cells with ADP; assay type: cell-based, mouse; conditions: for P-VASP level at baseline / cAMP level at baseline: no ADP stimulation
# Experimental: Cell lysates on a Western were blotted with an antibody to phosphorylated VASP at S157, and the intensity of the resulting bands were measured (as raw signal). […] There was no effect of PDE1 inhibition at baseline, consistent with the hypothesis that PDE1 is important under conditions of stimulation. […] As with cAMP, PDE1 activity (sensitive to ITI-214) appears to contribute about 50% to the total PDE activity (sensitive to IBMX) under conditions of stimulation while having no contribution at baseline. The dose dependent nature of the increase in cAMP is illustrated in FIG. 9.
# [6] = tested on: primary cultured microglia; assay: VASP phosphorylation in primary cultured rat microglia; assay type: cell-based; conditions: 1 μM
# Experimental: The above results were replicated in primary cultured microglia isolated from P2 rat whole brain (FIG. 10). Microglia were grown in culture for 12 days in serum-free media containing TGFb2, IL34, and cholesterol. The cells maintained properties in culture consistent with quiescent microglial-like cells, staining positive for Iba1 and maintaining a branched morphology.
# [7] = tested on: CT26 colorectal carcinoma cells; assay: CT26 colorectal carcinoma engrafted subcutaneously in mice; assay type: in vivo, mouse; conditions: for number of macrophages (CD45 positive) in the tumor microenvironment: 50 mg/kg, i.p., once daily
# Experimental: Mice were engrafted subcutaneously with CT26 colorectal carcinoma cells. Control mice were administered 150 μg IgG (Isotype).
# BV2 cells [8] = assay: Quantitative PCR of inflammatory cytokine mRNA in LPS-stimulated BV2 cells; assay type: cell-based, mouse; conditions: LPS 10 microgram/ml, Compound 214 10 microgram/ml, FIG. 2
# mouse striatum [9] = assay: LPS-induced inflammatory gene expression in mouse striatum (Q-PCR); assay type: in vivo; conditions: initial results
# bovine brain PDE1 = target: T1, bovine brain PDE1 (Bos taurus, UniProt Q01061); assay: IMAP phosphodiesterase assay, PDE1; assay type: biochemical
# T1 construct: IC50; other: bovine brain PDE1; Ki; other: bovine brain PDE1 assay
# Source text: Briefly, the IMAP reagent binds with high affinity to the free 5′-phosphate that is found in GMP-fluorescein and not in cGMP-fluorescein. The resulting GMP-fluorescein-IMAP complex is large relative to cGMP-fluorescein. Small fluorophores that are bound up in a large, slowly tumbling, complex can be distinguished from unbound fluorophores, because the photons emitted as they fluoresce retain the same polarity as the photons used to excite the fluorescence.
# The PDE1 enzyme is reconstituted with 50% glycerol to 2.5 U/ml. […] The compounds are mixed and pre-incubated with the enzyme for 10 min at room temperature.
# The reaction is incubated in dark at room temperature for 15 min.
# HL60 cells = assay: cGMP levels in PMA-differentiated HL60 cells with ANP and ionomycin (competitive ELISA); assay type: cell-based, human
# Experimental: We have shown that there is a synergistic effect between ANP and PDE1 inhibition. An immortalized human pro-myeloid cell line (HL60 from ATCC) is grown, differentiated and harvested as described in Bender, A T, and Beavo, J A, 2006, PNAS 103, 460-465. The cells are grown in HEPES buffered RPMI 1640 medium with penicillin, streptomycin, and 10% fetal bovine serum. Phorbol-12-myristate-13-acetate (PMA), at 100 nM for 3 days, is used to differentiate the HL60 cells into macrophage-like cells. Following differentiation, the cells are incubated with a PDE1 inhibitor or vehicle (DMSO) beginning at time 0. At 40 minutes, 5 μM ionomycin (a calcium ionophore) is added. At 50 minutes, 100 nM ANP was added. At 60 minutes, the cells are harvested. Total cGMP levels are measured using a competitive ELISA (Bender and Beavo, 2006).
# [drawing 33] is tested for its effect on cGMP levels in this system. […] In addition, the cGMP level attained by co-treatment with ANP and the PDE1 inhibitor is much greater than that obtained by co-treatment with ANP and a mixed PDE1/PDE5 inhibitor, SCH 51866 (used at 5 μM). In this experiment, the calcium ionophore ionomycin (used at 5 μM) is used to raise the intracellular calcium level and to counteract the cGMP rise induced by ANP.
# [10] = 10 μM, 50 ng/ml LPS for 4 hours, FIG. 3b
# [11] = 10 mg/kg i.p., 500 μg/kg LPS s.c., 2 hours
# [12] = 10 mg/kg i.p., 500 μg/kg LPS s.c., 2 hours, does not reach significance
# [13] = Striatum Mouse + LPS, Q-PCR, initial results
# P2Y12, sequence (Q9H244 whole entry, species assumed): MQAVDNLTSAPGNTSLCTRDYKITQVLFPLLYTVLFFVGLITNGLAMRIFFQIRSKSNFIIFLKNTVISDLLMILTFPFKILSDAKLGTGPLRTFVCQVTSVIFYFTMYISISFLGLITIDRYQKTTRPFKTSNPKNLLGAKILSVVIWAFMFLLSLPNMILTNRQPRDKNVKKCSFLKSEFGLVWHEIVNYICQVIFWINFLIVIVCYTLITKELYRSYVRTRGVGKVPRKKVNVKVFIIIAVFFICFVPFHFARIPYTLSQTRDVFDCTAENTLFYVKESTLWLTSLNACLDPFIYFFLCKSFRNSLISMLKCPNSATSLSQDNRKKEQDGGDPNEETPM
# T1 sequence (Q01061 whole entry): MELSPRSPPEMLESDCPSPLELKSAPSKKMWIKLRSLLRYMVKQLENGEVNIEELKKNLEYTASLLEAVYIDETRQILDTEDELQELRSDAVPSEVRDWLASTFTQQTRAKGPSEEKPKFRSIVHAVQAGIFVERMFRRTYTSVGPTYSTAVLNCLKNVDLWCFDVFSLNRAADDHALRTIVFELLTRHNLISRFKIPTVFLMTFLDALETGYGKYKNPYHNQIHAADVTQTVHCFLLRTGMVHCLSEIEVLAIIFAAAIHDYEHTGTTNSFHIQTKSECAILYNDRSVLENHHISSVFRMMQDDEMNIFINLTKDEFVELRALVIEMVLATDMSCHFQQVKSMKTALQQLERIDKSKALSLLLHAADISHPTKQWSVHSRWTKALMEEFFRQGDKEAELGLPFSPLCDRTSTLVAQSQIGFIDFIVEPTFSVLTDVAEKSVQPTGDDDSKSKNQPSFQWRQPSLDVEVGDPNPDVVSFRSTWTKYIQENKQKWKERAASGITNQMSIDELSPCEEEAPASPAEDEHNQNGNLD
smiles,measurement,setting,value
"CCCSc1nc(N)c2ncn([C@@H]3O[C@H](COP(=O)(O)OP(=O)(O)C(F)(F)P(=O)(O)O)[C@@H](O)[C@H]3O)c2n1 [AR-C 66096, reference compound]",chemotaxis of BV2 cells toward ADP,BV2 cells [1],inhibited ADP induced migration
same,IC50,P2Y12,6.9 nM
"CSCCNc1nc(SCCC(F)(F)F)nc2c1ncn2[C@@H]1O[C@H](COP(=O)(O)OP(=O)(O)C(Cl)(Cl)P(=O)(O)O)[C@@H](O)[C@H]1O [AR-C 69931, reference compound]",chemotaxis of BV2 cells toward ADP,BV2 cells [1],inhibited ADP induced migration
CN1C(=O)c2c(nn(Cc3ccc(-c4cccc(F)n4)cc3)c2Nc2ccccc2)N2C1=N[C@@H]1CCC[C@@H]12 [Compound 214],Ccl2 mRNA signal,BV2 cells [2]; [10],significantly decreased
same,IL1β mRNA signal,BV2 cells [2]; [10],trended downward
same,TNF mRNA signal,BV2 cells [2]; [10],significantly decreased
same,LPS-induced expression of Ccl2,BV2 cells [2]; 10 μM,significantly reduces
same,LPS-induced expression of IL1β,BV2 cells [2]; 10 μM,significantly reduces
same,LPS-induced expression of TNFα,BV2 cells [2]; 10 μM,significantly reduces
same,Chemokine (C—C) motif Ligand 2 expression,BV2 cells [2],Down
same,Interleukin 1 beta expression,BV2 cells [2],Down
same,Tumor necrosis factor expression,BV2 cells [2],Down
same,LPS-induced TNFα release,BV2 cells [3],dose-dependent inhibition
same,striatal mRNA expression of Ccl2,mouse striatum [4]; [11],attenuates
same,striatal mRNA expression of TNF,mouse striatum [4]; [11],attenuates
same,LPS-induced inflammatory gene expression changes in mice,"mouse striatum [4]; 10 mg/kg i.p., 500 μg/kg LPS s.c., 2 hours, FIG. 6",prevents
same,striatal mRNA level of IL1-beta,mouse striatum [4]; [12],trended to lower levels
same,striatal mRNA level of IL6,mouse striatum [4]; [12],trended to lower levels
same,Chemokine (C—C) motif Ligand 2 expression,mouse striatum [4]; [13],Down
same,chemotaxis of BV2 cells toward ADP,BV2 cells [1],inhibits
same,chemotaxis of BV2 cells toward ADP,BV2 cells [1]; listed as compound 214,reduced chemotaxis of BV2 cells toward 100 μM ADP in a dose-dependent manner
same,ADP-induced elevation in cAMP,"BV2 cells [5]; 30 min pretreatment, ADP for 5 minutes, ELISA",significantly augmented
same,ADP-induced P-VASP at serine 157,"BV2 cells [5]; 30 min pretreatment, ADP for 5 minutes, Western blot",significantly augmented
same,P-VASP level at baseline,BV2 cells [5],no effect
same,cAMP level at baseline,BV2 cells [5],no effect
same,VASP phosphorylation under basal conditions,[6],little effect
same,increase in VASP phosphorylation after ADP,[6]; 100 μM ADP for 5 mins,significantly enhanced
same,percentage of responders (tumor volume <500 mm3),"[7]; 1 mg, 5 days a week starting at day 7, alone",increase
same,number of macrophages (CD45 positive) in the tumor microenvironment,[7]; alone,significantly reduced
same,number of macrophages (CD45 positive) in the tumor microenvironment,[7]; in combination with an anti-PD1 antibody,significantly reduced
same,percentage of responders (tumor volume <500 mm3),"[7]; in combination with 150 μg Anti-PD-1 (RMP1-14) on days 7, 11, 14, 17",increase
same,LPS-induced increase in expression of IL1β mRNA,BV2 cells [8],significantly blunts; also recorded: suppresses
same,Oncostatin M expression,mouse striatum [9],Down
"CN1C(=O)c2c(nn(Cc3ccc(C(F)(F)F)cc3)c2Nc2ccccc2)N2C1=N[C@@H]1CCC[C@@H]12 [Example 20 of U.S. Pat. No. 8,273,750, (6aR,9aS)-3-(phenylamino)-5,6a,7,8,9,9a-hexahydro-5-methyl-2-(4-(trifluoromethyl)-benzyl)-cyclopent[4,5]imidazo[1,2-a]pyrazolo[4,3-e]pyrimidin-4(2H)-one]",Ki,bovine brain PDE1,0.68 nM
same,cGMP level induced in HL60 cells,"HL60 cells; 100 nM ANP + 100 nM PDE1 inhibitor, compared with ANP alone or inhibitor alone",greater than that induced by either the ANP alone or the PDE1 inhibitor alone
same,effect of ionomycin on cGMP,HL60 cells; 5 μM ionomycin combined with ANP and the PDE1 inhibitor,only a weak cGMP lowering effect
same,cGMP level attained by co-treatment with ANP,HL60 cells; compared with co-treatment with ANP and SCH 51866 (5 μM),much greater
"CC(C)Cn1c(=O)n(C)c(=O)c2[nH]cnc21 [IBMX, reference compound]",P-VASP level at baseline,BV2 cells [5],did elevate
same,cAMP level at baseline,BV2 cells [5],did elevate
"COc1ccc(C2CNC(=O)C2)cc1OC1CCCC1 (centres unmarked) [rolipram, reference compound]",LPS-induced expression of Ccl2,BV2 cells [2]; 10 μM,reducing
same,LPS-induced expression of IL1β,BV2 cells [2]; 10 μM,increasing
same,LPS-induced expression of TNFα,BV2 cells [2]; 10 μM,reducing
same,Chemokine (C—C) motif Ligand 2 expression,BV2 cells [2],Down
same,Interleukin 1 beta expression,BV2 cells [2],UP UP
same,Tumor necrosis factor expression,BV2 cells [2],Down
same,Chemokine (C—C) motif Ligand 2 expression,mouse striatum [4]; [13],Down
same,Interleukin 1 beta expression,mouse striatum [4]; [13],UP-UP
same,Interleukin 6 expression,mouse striatum [4]; [13],UP-UP
same,Tumor necrosis factor expression,mouse striatum [4]; [13],Down
same,Oncostatin M expression,mouse striatum [9],Down
